This note sets out measurements from patent publication EP1191024A1, “Thiadiazines and their use as inhibitors of metalloproteinases” (Tschesche, Harald, priority 2000, dated 2002).

What all share (experiment): MMP microfluorometric profiling assay (fluorogenic Mca-peptide substrate)
Common to all, as to assay type: biochemical

Test [1] concerns the target cdMMP-13 (Homo sapiens, UniProt P45452). The following applies: for percent inhibition: cdMMP-13, @ 15 (µM). Here is the method:
(§1) The tested MMP enzymes were prepared more specifically in the laboratories of the applicants, with the exception of MMP-1. MMP-1 from human rheumatoid synovial fibroblasts was purchased from Calbiochem-Novabiochem Corporation, LaJolla. Preparation of the recombinant catalytic domain of human Gelatinase A (cdMMP-2): The catalytic domain of Pro-Gelatinase A was prepared using an E. coli expression system according to the method described by Kröger et al^[19]. The proenzyme was activated with 0.5 mM APMA at 37°C prior to use in the assay. Preparation of the recombinant catalytic domain of human neutrophile Collagenase (cdMMP-8^Met80): The enzyme was expressed in E. coli as an active variant by the method of Kleine et al^[20]. Preparation of PMNL-Gelatinase (MMP-9): Latent PMNL-pro-Gelatinase was prepared from human plasma buffy coat as described by Tschesche et al^[21]. PMNL-pro-Gelatinase was activated prior to use by incubation with Trypsin at 37°C for 10 min. Inactivation of Trypsin was accomplished with TKI. Preparation of the recombinant catalytic domain of human Macrophage Elastase (cdMMP-12): The catalytic domain of MMP-12 was expressed in E. coli. The overexpressed protein was isolated as inclusion bodies and the renatured protein was purified by affinity chromatography with a hydroxamate inhibitor coupled column as described^[22]. Preparation of the recombinant catalytic domain of human Collagenase-3 (cdMMP-13): Human pro-cdMMP-13 was prepared using an E. coli expression system according to the method described^[23]. The isolated pro-cdMMP-13 was activated prior to use by incubation with 5 mM HgCl2 for 2 h at 37°C. Preparation of the recombinant catalytic domain of Membrane-Type-1 MMP (cdMMP-14): The catalytic domain of MMP-14 was expressed in E. coli and was activated by autocatalysis^[24]. Preparation of the recombinant human ectodomain of Membrane-Type-1 MMP (ΔTM-MMP-14): The ectodomain of MMP-14 was expressed in Pichia Pastoris by the method of Roderfeld et al. and activated by yeast proteases (Furin-like-proteases) during maturation^[25].
(§2) The enzymatic activity was measured using a modified version of a resonance energy transfer fluorogenic assay as described^[26]. Progress curves were monitored by following the increase in fluorescence at 393 nm (λex = 328 nm), induced by the cleavage of the (7-methoxycoumarin-4-yl)acetyl-Pro-Leu-Gly-Leu-(3-[2,4-dinitro-phenyl]-L-2,3-diamino-propionyl)-Ala-Arg-NH2 (Mca-Pro-Leu-Gly-Leu-Dpa-Ala-Arg-NH2) fluorogenic substrate by MMPs. The fluorescent MCA-group is quenched by resonance energy transfer to the 2,4-dinitrophenyl group. Matrix metalloproteinases cleave this substrate at the Gly-Leu bond. Cleavage results in the loss of energy transfer and a large increase in fluorescence of the MCA group. This substrate is commercially available from Bachem, Switzerland.
(§3) Enzyme inhibition assays were carried out in MRB which consisted of 50 mM HEPES/NaOH, pH 7.0, 10 mM CaCl2 and 0,02% (w/v) PEG 8000 at 25°C. MMP microfluorometric profiling assay was done in white U-bottomed 96-well plates (Microfluor 1 White, Dynex, USA) with a final substrate concentration of 6 µM MCA-peptide, approximately 0.3 to 5 nM MMP with variable inhibitor concentrations and 2% DMSO vehicle. From a 1.5 mM stock (100% DMSO) the inhibitors were serially diluted with MRB to 15, 10, 5, 3, 1, 0.6, 0.3, 0.1, 0.05, 0.01 and 0.005 µM final assay concentration. Column 1, rows A through H, contained only DMSO for the "enzyme-only" wells in the assay. After preincubation for 30 min at 25°C the reaction was started by addition of substrate and the plate was read on a SpectraFluor Plus (Tecan, Germany) plate reader with excitation at 330 nm and emission at 405 nm with the gain set to 150. Each measurement was done in triplicate to ensure statistically significant results. […]

Test [2] deals with T1, cdMMP-12 (Homo sapiens, UniProt P39900).
T1 construct: The catalytic domain of MMP-12 was expressed in E. coli; made in house; host or cells: E. coli
The procedure: as §1, §2, §3

The target in test [3] is T2, cdMMP-14 (Homo sapiens, UniProt P50281).
T2 construct: made in house; host or cells: E. coli
The settings on record: for percent inhibition: cdMMP-14, @ 15 (µM). Here is the method: as §1, §2, §3

Test [4] concerns the target T3, MMP-9 (Homo sapiens, UniProt P14780).
T3 construct: from tissue; host or cells: human plasma buffy coat (PMNL)
The settings on record: for percent inhibition: MMP-9, @ 15 (µM). The procedure:
as §1, §2, §3

Test [5] has as its target T4, ΔTM-MMP-14 (Homo sapiens, UniProt P50281).
T4 construct: The ectodomain of MMP-14 was expressed in Pichia Pastoris; made in house; host or cells: Pichia pastoris
Here is the method: as §1, §2, §3

The target in test [6] is T5, MMP-1 (Homo sapiens, UniProt P03956).
T5 construct: MMP-1 from human rheumatoid synovial fibroblasts was purchased; purchased Calbiochem-Novabiochem Corporation, LaJolla; host or cells: human rheumatoid synovial fibroblasts
T5 sequence (P03956 100-469): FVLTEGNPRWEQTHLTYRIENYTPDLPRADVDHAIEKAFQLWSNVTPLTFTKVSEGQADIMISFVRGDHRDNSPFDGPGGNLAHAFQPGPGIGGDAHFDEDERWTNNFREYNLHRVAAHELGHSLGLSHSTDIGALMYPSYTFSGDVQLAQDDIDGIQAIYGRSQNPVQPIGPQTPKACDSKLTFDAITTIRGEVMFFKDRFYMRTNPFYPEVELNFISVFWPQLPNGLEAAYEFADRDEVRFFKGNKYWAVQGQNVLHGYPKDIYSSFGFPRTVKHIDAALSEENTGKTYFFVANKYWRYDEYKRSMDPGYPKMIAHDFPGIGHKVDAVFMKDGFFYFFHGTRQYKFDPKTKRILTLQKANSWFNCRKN
Here is the method: as §1, §2, §3

Each structure is given as a SMILES string. Where a name gives a salt, the structure may show the parent alone. Read-outs that look alike come from different tables or passages of the source.

T1 sequence (P39900 106-263 limits assumed): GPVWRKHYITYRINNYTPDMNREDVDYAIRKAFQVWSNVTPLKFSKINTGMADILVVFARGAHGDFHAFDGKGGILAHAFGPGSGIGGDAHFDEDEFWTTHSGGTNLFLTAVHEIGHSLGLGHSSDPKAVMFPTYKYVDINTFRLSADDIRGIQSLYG
T3 sequence (P14780 107-707 limits assumed): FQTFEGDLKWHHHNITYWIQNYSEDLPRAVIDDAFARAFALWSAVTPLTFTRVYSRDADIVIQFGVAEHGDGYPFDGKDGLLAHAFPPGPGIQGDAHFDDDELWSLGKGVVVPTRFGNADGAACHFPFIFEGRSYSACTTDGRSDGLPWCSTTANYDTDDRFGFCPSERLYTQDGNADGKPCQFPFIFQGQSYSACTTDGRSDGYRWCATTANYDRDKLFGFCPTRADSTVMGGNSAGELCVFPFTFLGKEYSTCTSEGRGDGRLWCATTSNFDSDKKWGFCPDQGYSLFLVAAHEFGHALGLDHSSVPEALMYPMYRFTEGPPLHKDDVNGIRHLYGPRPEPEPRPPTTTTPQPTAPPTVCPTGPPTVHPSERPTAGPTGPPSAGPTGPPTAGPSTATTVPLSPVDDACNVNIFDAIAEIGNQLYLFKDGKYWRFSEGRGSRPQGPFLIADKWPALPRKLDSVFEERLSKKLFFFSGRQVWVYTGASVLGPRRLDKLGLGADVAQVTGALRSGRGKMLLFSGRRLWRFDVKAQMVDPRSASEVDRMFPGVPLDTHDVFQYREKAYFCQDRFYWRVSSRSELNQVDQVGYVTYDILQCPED

Broadly, the IC50 is the concentration needed to halve the response being measured. With `COc1ccc(S(=O)(=O)NCC(=O)NC2=NN=C(c3c(F)c(F)c(F)c(F)c3F)CS2)cc1` [Example 16, 2-{[(4-Methoxyphenyl)sulfonyl]amino}-N-[5-(2,3,4,5,6-pentafluorophenyl)-6H-1,3,4-thiadiazin-2-yl]acetamide], the IC50 stood at 1090 nM in test [1] (read-out: cdMMP-13 IC50), 920 nM in test [2], 1760 nM in test [3] and 2570 nM in test [4].

For `O=C(CC1NC(=O)NC1=O)NC1=NN=C(c2ccc(N3CCCC3)cc2)CS1` (stereo not drawn) [Example 26, 2-(2,5-Dioxo-4-imidazolidinyl)-N-{5-[4-(1-pyrrolidinyl)phenyl]-6H-1,3,4-thiadiazin-2-yl}acetamide], the percent inhibition in test [5] (ΔTM-MMP-14, @ 15 (µM)) was determined as 63%^a)@ 15; in test [1] it was 36%^a)@ 15. In addition, the IC50 in test [2] amounted to 217 nM; in test [3], 1100 nM; in test [4] it was 517 nM.

Take `CC(C)[C@@H](NS(=O)(=O)c1ccccc1)C(=O)NC1=NN=C(c2ccc(Cl)cc2)CS1` [Example 2, (2R)-N-[5-(4-Chlorophenyl)-6H-1,3,4-thiadiazin-2-yl]-3-methyl-2-[(phenylsulfonyl)amino]butanamide]: the IC50 in test [5] was 593 nM; in test [1] (read-out: cdMMP-13 IC50) it was more than 15000 nM; in test [6], 629 nM; in test [2] it was 426 nM; in test [3] it was 1110 nM. Also, the percent inhibition in test [4] stood at 40%^a)@ 15.

Take `CC(C)[C@H](NS(=O)(=O)c1ccccc1)C(=O)NC1=NN=C(c2ccc(Cl)cc2)CS1` [Example 22, (2S)-N-[5-(4-Chlorophenyl)-6H-1,3,4-thiadiazin-2-yl]-3-methyl-2-[(phenylsulfonyl)amino]butanamide]: the half-inhibitory concentration (IC50) in test [1] (read-out: cdMMP-13 IC50) was more than 15000 nM; in test [2] it was 463 nM; in test [3] it was 1400 nM; in test [4], 851 nM.

As to `C[C@H](NS(=O)(=O)c1ccccc1)C(=O)NC1=NN=C(c2ccc([N+](=O)[O-])cc2)CS1` [Example 9, (2S)-N-[5-(4-Nitrophenyl)-6H-1,3,4-thiadiazin-2-yl]-2-[(phenylsulfonyl)amino]-propanamide], the half-inhibitory concentration (IC50) in test [1] (read-out: cdMMP-13 IC50) is 449 nM; in test [6], 294 nM; in test [2], 342 nM; in test [3], 556 nM; in test [4] it was 552 nM.

In the case of `COc1ccc(S(=O)(=O)N[C@@H](C)C(=O)NC2=NN=C(c3ccc(C)cc3)CS2)cc1` [Example 17, (2S)-2-{[(4-Methoxyphenyl)sulfonyl]amino}-N-[5-(4-methylphenyl)-6H-1,3,4-thiadiazin-2-yl]propanamide], the IC50 in test [1] (read-out: cdMMP-13 IC50) is 1110 nM; in test [2], 436 nM; in test [3] it was 707 nM; in test [4], 689 nM.

Regarding `C[C@H](NS(=O)(=O)N1CCOCC1)C(=O)NC1=NN=C(c2ccc(Cl)cc2)CS1` [Example 28, (2S)-N-[5-(4-Chlorophenyl)-6H-1,3,4-thiadiazin-2yl-]-2-[(4-morpholinylsulfonyl)amino]propanamide], the IC50 came to 735 nM in test [1]; 537 nM in test [6]; 330 nM in test [2]; 471 nM in test [3]; 1200 nM in test [4].

As to `COc1ccc(S(=O)(=O)NCC(=O)NC2=NN=C(c3ccc(Cl)cc3Cl)CS2)cc1` [Example 19, N-[5-(2,4-Dichlorophenyl)-6H-1,3,4-thiadiazin-2-yl]-2-{[(4-methoxyphenyl)-sulfonyl]amino}acetamide], the IC50 in test [1] (read-out: cdMMP-13 IC50) was determined as 605 nM; in test [2], 259 nM; in test [3] it was 700 nM; in test [4] it was 661 nM.

Turning to `C[C@H](NS(=O)(=O)c1ccccc1)C(=O)NC1=NN=C(c2ccc(Br)cc2)CS1` [Example 6, (2S)-N-[5-(4-Bromophenyl)-6H-1,3,4-thiadiazin-2-yl]-2-[(phenylsulfonyl)amino]-propanamide], the IC50 in test [1] is 658 nM; in test [2], 533 nM; in test [3], 637 nM; in test [4], 686 nM.

With `O=C(CC1NC(=O)NC1=O)NC1=NN=C(c2ccc(C3CCCCC3)cc2)CS1` (stereo not drawn) [Example 25, N-[5-(4-Cyclohexylphenyl)-6H-1,3,4-thiadiazin-2-yl]-2-(2,5-dioxo-4-imidazolidinyl)acetamide], the percent inhibition in test [1] came to 67%^a)@ 15; in test [6] (MMP-1, @ 15 (µM)), 67%^a)@ 15; in test [3], 66%^a)@ 15; in test [4], 49%^a)@ 15. The molecule further yielded an IC50 in test [2] of 1420 nM.

As for `O=C(CC1NC(=O)NC1=O)NC1=NN=C(c2ccc(Cl)cc2)CS1` (stereo not drawn) [Example 23, N-[5-(4-Chlorophenyl)-6H-1,3,4-thiadiazin-2-yl]-2-(2,5-dioxo-4-imidazolidinyl)-acetamide], the percent inhibition was found to be 34%^a)@ 15 in test [1], 52%^a)@ 15 in test [3] and 40%^a)@ 15 in test [4]. Further, it took 380 nM to reach half-maximal inhibition in test [2] (IC50).

On to `O=C(CC1NC(=O)NC1=O)NC1=NN=C(c2ccc(Br)cc2)CS1` (stereo not drawn) [Example 24, N-[5-(4-Bromophenyl)-6H-1,3,4-thiadiazin-2-yl]-2-(2,5-dioxo-4-imidazolidinyl)-acetamide], for which the percent inhibition in test [1] is reported as 39%^a)@ 15; in test [4], 45%^a)@ 15. Moreover, the IC50 in test [2] is 297 nM; in test [3], 1070 nM.

`C=CCNC1=NN=C(c2ccc(Cl)cc2)CS1` [Example 31, N-Allyl-5-(4-chlorophenyl)-6H-1,3,4-thiadiazin-2-amine hydrobromide]: the IC50 in test [1] is more than 15000 nM; in test [2] it was more than 15000 nM; in test [3] it was 2700 nM; in test [4] it was 783 nM.

`COc1ccc(C2=NN=C(NC(=O)[C@H](C)NS(=O)(=O)c3ccccc3)SC2)cc1` [Example 12, (2S)-N-[5-(4-Methoxyphenyl)-6H-1,3,4-thiadiazin-2-yl]-2-[(phenylsulfonyl)-amino]propanamide]: the IC50 in test [1] (read-out: cdMMP-13 IC50) stood at 2310 nM; in test [6] it was 663 nM; in test [2], 412 nM; in test [3], 1120 nM; in test [4], 1400 nM.
